The values below come from ChEMBL document CHEMBL5375992, “Design and Development of IKZF2 and CK1α Dual Degraders” (J Med Chem, 2023).

Molecules are shown by their SMILES. Converted amounts (≈) assume the structure as drawn. The source made the active and inactive calls. The calls are words filed in the database; no cut-off is given here. Bounds are passed on as bounds.

Series [1] deals with Cereblon/Casein kinase I alpha (Homo sapiens) (UniProt P48729+Q96SW2). In words: Protac activity at CRBN/CK1alpha (unknown origin) transfected in HEK293T cells at 100 nM incubated for 24 hrs by flow cytometry analysis relative to control. The series is classed as cell-based.
Chain of Cereblon/Casein kinase I alpha (Homo sapiens) (P48729 2-337 limits assumed): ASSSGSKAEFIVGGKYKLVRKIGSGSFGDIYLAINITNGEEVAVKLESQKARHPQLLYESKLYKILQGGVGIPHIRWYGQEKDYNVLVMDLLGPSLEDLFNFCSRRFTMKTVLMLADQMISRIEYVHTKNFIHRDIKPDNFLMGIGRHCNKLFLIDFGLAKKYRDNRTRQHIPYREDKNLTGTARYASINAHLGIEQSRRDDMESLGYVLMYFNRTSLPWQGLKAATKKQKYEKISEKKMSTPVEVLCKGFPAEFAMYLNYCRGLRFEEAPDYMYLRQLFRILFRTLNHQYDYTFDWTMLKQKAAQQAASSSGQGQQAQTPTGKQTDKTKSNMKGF
Chain of Cereblon/Casein kinase I alpha (Homo sapiens) (Q96SW2 whole entry partner): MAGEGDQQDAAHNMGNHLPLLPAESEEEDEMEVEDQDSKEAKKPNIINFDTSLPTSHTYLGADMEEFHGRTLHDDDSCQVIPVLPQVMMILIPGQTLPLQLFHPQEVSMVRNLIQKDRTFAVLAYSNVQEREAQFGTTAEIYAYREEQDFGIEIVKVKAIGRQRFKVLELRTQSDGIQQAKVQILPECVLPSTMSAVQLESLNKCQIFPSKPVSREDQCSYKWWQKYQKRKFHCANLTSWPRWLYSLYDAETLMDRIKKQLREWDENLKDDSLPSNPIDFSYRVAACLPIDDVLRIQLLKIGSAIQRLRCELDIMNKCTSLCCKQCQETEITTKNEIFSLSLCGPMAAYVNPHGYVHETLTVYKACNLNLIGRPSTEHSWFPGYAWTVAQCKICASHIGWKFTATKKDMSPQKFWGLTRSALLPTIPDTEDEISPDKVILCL
The target in series [2] is T1, Protein cereblon/Zinc finger protein Helios (Homo sapiens) (UniProt Q96SW2+Q9UKS7). In words: Protac activity at CRBN/IKZF2 (unknown origin) transfected in HEK293T cells at 100 nM incubated for 24 hrs by flow cytometry analysis relative to control. The class given is cell-based.
T1 sequence (Q96SW2 whole entry, looked up): as the sequence (Q96SW2 whole entry partner) above
T1 sequence (Q9UKS7 whole entry, looked up): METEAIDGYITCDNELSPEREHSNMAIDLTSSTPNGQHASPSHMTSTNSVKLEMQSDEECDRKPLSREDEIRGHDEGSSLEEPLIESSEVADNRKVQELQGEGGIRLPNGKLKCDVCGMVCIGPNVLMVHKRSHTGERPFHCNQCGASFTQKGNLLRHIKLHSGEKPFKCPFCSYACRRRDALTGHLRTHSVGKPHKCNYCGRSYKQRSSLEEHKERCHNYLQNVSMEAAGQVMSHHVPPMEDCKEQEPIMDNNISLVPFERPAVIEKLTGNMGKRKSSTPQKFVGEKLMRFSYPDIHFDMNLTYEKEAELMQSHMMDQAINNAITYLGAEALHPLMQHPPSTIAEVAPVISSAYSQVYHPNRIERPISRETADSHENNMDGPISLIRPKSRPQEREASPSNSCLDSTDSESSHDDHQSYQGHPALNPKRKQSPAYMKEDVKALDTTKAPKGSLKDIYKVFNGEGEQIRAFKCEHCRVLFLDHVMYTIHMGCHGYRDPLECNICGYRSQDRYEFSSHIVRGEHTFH
Series [3] deals with T2, Cereblon/Ikaros (Homo sapiens) (UniProt Q96SW2+Q13422). In words: Protac activity at CRBN/IKZF1 (unknown origin) transfected in HEK293T cells at 100 nM incubated for 24 hrs by flow cytometry analysis relative to control. The series is classed as cell-based.
Series [4] addresses Protein cereblon/Eukaryotic peptide chain release factor GTP-binding subunit ERF3A (Homo sapiens) (UniProt Q96SW2+P15170). The series can be described thus: Protac activity at CRBN/GSPT1 (unknown origin) transfected in HEK293T cells at 100 nM incubated for 24 hrs by flow cytometry analysis relative to control. The class given is cell-based.
A short description of series [5]: Solubility of compound in DMSO. The settings on record: DMSO; read-out: solubility. The class given is physicochemical.
The target in series [6] is T2, Cereblon/Ikaros (Homo sapiens). The series can be described thus: Protac activity at CRBN/IKZF1 in human MOLM-13 cells at 25 uM incubated for 24 hrs by Western blotting analysis relative to control. The series is classed as cell-based.
Series [7] addresses T1, Protein cereblon/Zinc finger protein Helios (Homo sapiens). The series can be described thus: Protac activity at CRBN/IKZF2 in human MOLM-13 cells at 25 uM incubated for 24 hrs by Western blotting analysis relative to control. The series is classed as cell-based.
Series [8] has the same target. The series can be described thus: Protac activity at CRBN/IKZF2 in human MOLM-13 cells assessed as relative ratio at 25 uM incubated for 24 hrs by Western blotting analysis relative to DMSO. The series is classed as cell-based.
Series [9] addresses T2, Cereblon/Ikaros (Homo sapiens). In words: Protac activity at CRBN/IKZF1 in human MOLM-13 cells assessed as relative ratio at 25 uM incubated for 24 hrs by Western blotting analysis relative to DMSO. The class given is cell-based.
Series [10] is described as follows: Metabolic stability in mouse liver microsomes assessed as intrinsic clearance preincubated with NADPH and UDPGA for 5 mins followed by compound addition and measured upto 60 mins by LC-MS/MS analysis. The series is classed as ADME, Microsome. The conditions noted are these: read-out: CLH.
Series [11] can be described thus: Metabolic stability in mouse liver microsomes assessed as half life preincubated with NADPH and UDPGA for 5 mins followed by compound addition and measured upto 60 mins by LC-MS/MS analysis. The series is classed as ADME, Microsome.

Chain of Protein cereblon/Eukaryotic peptide chain release factor GTP-binding subunit ERF3A (Homo sapiens) (P15170 whole entry, looked up): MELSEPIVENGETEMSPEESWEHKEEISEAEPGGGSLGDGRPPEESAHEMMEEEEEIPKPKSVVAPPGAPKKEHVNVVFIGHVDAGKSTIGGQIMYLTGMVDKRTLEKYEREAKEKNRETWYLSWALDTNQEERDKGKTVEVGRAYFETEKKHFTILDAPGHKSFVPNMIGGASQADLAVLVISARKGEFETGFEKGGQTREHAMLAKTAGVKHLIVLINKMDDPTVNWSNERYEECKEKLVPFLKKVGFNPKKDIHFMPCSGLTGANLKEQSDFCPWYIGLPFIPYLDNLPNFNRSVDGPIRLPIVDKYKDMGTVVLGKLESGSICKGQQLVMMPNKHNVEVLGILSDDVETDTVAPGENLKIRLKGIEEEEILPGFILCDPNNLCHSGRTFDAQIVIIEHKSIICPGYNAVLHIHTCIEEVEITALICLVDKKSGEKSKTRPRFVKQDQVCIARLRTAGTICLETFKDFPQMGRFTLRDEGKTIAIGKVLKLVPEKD
Chain of Protein cereblon/Eukaryotic peptide chain release factor GTP-binding subunit ERF3A (Homo sapiens) (Q96SW2 whole entry, looked up): as the sequence (Q96SW2 whole entry partner) above

For the compound `Cc1ccc2c(c1)OCC(C(=O)Nc1ccc3c(c1)CN(C1CCC(=O)NC1=O)C3=O)=C2` (configuration not stated), the Activity was 64% in series [1], 73% in [2], 9% in series [3] and 14% in series [4]. The solubility in [5] came to 50 mM (≈ 21.6 mg/mL).

For `O=C1CCC(N2Cc3cc(NCc4ccc5ccncc5c4)ccc3C2=O)C(=O)N1` (configuration not stated), the result in [6] was Active.

On to `COc1cccc2ccc(CNc3ccc4c(c3)CN(C3CCC(=O)NC3=O)C4=O)cc12` (configuration not stated), for which, in [6], the outcome was Active. Besides, in [7], the result was inactive.

Take `O=C1CCC(N2Cc3cc(NCc4ccc5ncccc5c4)ccc3C2=O)C(=O)N1` (configuration not stated): the result in series [6] was Active.

For the compound `CN(C)c1ccc2cc(CNc3ccc4c(c3)CN(C3CCC(=O)NC3=O)C4=O)ccc2c1` (configuration not stated), the result in series [6] and in series [7] was Active. Besides, the Ratio in [8] is 0.74; in [9], 0.65.

As to `O=C1CCC(N2Cc3cc(NCc4ccc5cc(F)ccc5c4)ccc3C2=O)C(=O)N1` (configuration not stated), the result in series [6] and in [7] was Active.

On to `COc1cccc2c1C=C(C(=O)Nc1ccc3c(c1)CN(C1CCC(=O)NC1=O)C3=O)CO2` (configuration not stated), for which the Activity in series [1] stood at 59%; in series [2], 75%; in [3] it was 39%; in series [4] it was 24%. In series [5], the solubility was 50 mM (≈ 22.4 mg/mL).

For `O=C1CCC(N2Cc3cc(NCc4ccc5ccccc5c4)ccc3C2=O)C(=O)N1` (configuration not stated), the Ratio in series [8] amounted to 0.36; in series [9], 0.15. Besides, the outcome in [7] was Active.

On to `O=C1CCC(N2Cc3cc(NC(=O)c4ccc5c(c4)OCCO5)ccc3C2=O)C(=O)N1` (configuration not stated), for which the Activity in [1] was determined as 36%; in series [2] it was 38%; in series [3] it was 9%; in series [4], 5%.

Take `O=C1CCC(N2Cc3cc(NCc4cccc(Oc5ccccc5)c4)ccc3C2=O)C(=O)N1` (configuration not stated): the results for the Ratio in series [8] and in [9] were 0.79 and 0.14, respectively.

Regarding `O=C1CCC(N2Cc3cc(NC(=O)c4ccc5c(c4)OCO5)ccc3C2=O)C(=O)N1` (configuration not stated), the Activity in series [1] was 36%; in series [2], 49%; in series [3], 7%; in [4], 5%.

On to `COc1ccc2ccc(CNc3ccc4c(c3)CN(C3CCC(=O)NC3=O)C4=O)cc2c1` (configuration not stated), for which the result in series [6] was Active. In addition, the result in series [7] was inactive.

As for `O=C1CCC(N2Cc3cc(NC(=O)c4cccc(Oc5ccccc5)c4)ccc3C2=O)C(=O)N1` (configuration not stated), the Activity in series [1] turned out to be 58%; in [2] it was 74%; in [3], 62%; in series [4], 9%.

Turning to `O=C1CCC(N2C(=O)c3ccc(NCc4ccc5ccccc5c4)cc3C2=O)C(=O)N1` (configuration not stated), the outcome in [6] was inactive. For the same compound, the Ratio in series [8] was 1.45; in [9], 0.09. Also, in series [7], the result was Active.

Turning to `O=C1CCC(N2Cc3cc(NCc4cc5ccccc5cn4)ccc3C2=O)C(=O)N1` (configuration not stated), the outcome in series [6] was Active.

Regarding `O=C1CCC(N2Cc3cc(NCc4ccc5c(c4)oc4ccccc45)ccc3C2=O)C(=O)N1` (configuration not stated), the result in series [6] and in [7] was Active. Moreover, the Ratio in [8] stood at 0.94; in series [9], 0.24.

As for `O=C1CCC(N2Cc3cc(NCc4ccc5oc6ccccc6c5c4)ccc3C2=O)C(=O)N1` (configuration not stated), the values for the Ratio in series [8] and in [9] were 0.19 and 0.08, respectively. Besides, in series [7], the result was Active.

Regarding `O=C1CCC(N2Cc3cc(NC(=O)c4ccc5occc5c4)ccc3C2=O)C(=O)N1` (configuration not stated), the Activity stood at 50% in [1], 81% in series [2], 6% in series [3] and 2% in series [4].

For `O=C1CCC(N2Cc3cc(NCc4cccc(OCc5ccccc5)c4)ccc3C2=O)C(=O)N1` (configuration not stated), the Ratio was found to be 0.66 in series [8] and 0.04 in [9].

`O=C1CCC(N2Cc3cc(NC(=O)C4=COc5ccccc5O4)ccc3C2=O)C(=O)N1` (configuration not stated): the Activity stood at 46% in series [1], 81% in series [2], 13% in series [3] and 0% in [4].

As for `O=C1CCC(N2Cc3cc(NCc4cc5ccccc5o4)ccc3C2=O)C(=O)N1` (configuration not stated), the Ratio worked out at 0.76 in series [8] and 0.13 in [9].

As to `COc1cnc2cc(C(=O)Nc3ccc4c(c3)CN(C3CCC(=O)NC3=O)C4=O)ccc2c1` (configuration not stated), the Activity was 64% in series [1] and 62% in series [2]. Moreover, the microsomal CLint in series [10] is under 5.4 µL/min/mg. Besides, in series [11], the half-life was over 4.25 h.

With `O=C1CCC(N2Cc3cc(NCc4cccc5c4oc4ccccc45)ccc3C2=O)C(=O)N1` (configuration not stated), the outcome in series [6] and in series [7] was Active. The figures for the Ratio in [8] and in series [9] were 0.84 and 0.32, respectively.

With `O=C1CCC(N2Cc3cc(NCc4cccc5cnccc45)ccc3C2=O)C(=O)N1` (configuration not stated), the result in series [6] was Active.

In the case of `O=C1CCC(N2Cc3cc(NC(=O)c4cccc(C(=O)c5ccccc5)c4)ccc3C2=O)C(=O)N1` (configuration not stated), the Activity in series [1] turned out to be 64%; in [2] it was 83%; in series [3], 60%; in series [4] it was 9%.

Consider `O=C1CCC(N2Cc3cc(NC(=O)c4ccc5cc(O)ccc5c4)ccc3C2=O)C(=O)N1` (configuration not stated), for which the Activity was found to be 55% in series [1] and 60% in series [2].

With `COc1cc2ccc(C(=O)Nc3ccc4c(c3)CN(C3CCC(=O)NC3=O)C4=O)cc2cn1` (configuration not stated), the Activity in series [1] stood at 72%; in series [2] it was 88%.

Regarding `O=C1CCC(N2Cc3cc(NCc4ccc5cc(Br)ccc5c4)ccc3C2=O)C(=O)N1` (configuration not stated), the figures for the Ratio in series [8] and in series [9] were 1.41 and 0.73, respectively.

On to `CC(=O)Nc1ccc2c(c1)CN(C1CCC(=O)NC1=O)C2=O` (configuration not stated), for which the Activity was found to be 12% in series [1], 17% in [2], 4% in series [3] and 10% in series [4].

As to `O=C1CCC(N2Cc3cc(NC(=O)c4ccc5ncsc5c4)ccc3C2=O)C(=O)N1` (configuration not stated), the Activity in series [1] worked out at 33%; in series [2], 42%; in [3], 3%; in series [4] it was 0%.

Regarding `O=C1CCC(N2Cc3cc(NCc4ccccc4)ccc3C2=O)C(=O)N1` (configuration not stated), the Ratio in [8] came out at 1.04; in series [9], 0.59.

For the compound `O=C1CCC(N2Cc3cc(NC(=O)Cc4cccc5ccccc45)ccc3C2=O)C(=O)N1` (configuration not stated), the Activity in [1] was 64%; in series [2] it was 93%; in [3], 97%; in [4], 25%.

As to `O=C1CCC(N2Cc3cc(NC(=O)c4ccc(Oc5ccccc5)cc4)ccc3C2=O)C(=O)N1` (configuration not stated), the Activity in series [1] was found to be 61%; in series [2] it was 78%; in series [3], 5%; in [4], 10%.

Regarding `COc1ccc(CNc2ccc3c(c2)CN(C2CCC(=O)NC2=O)C3=O)cc1` (configuration not stated), the Ratio came to 0.65 in series [8] and 0.48 in series [9].

For the compound `O=C1CCC(N2Cc3cc(NCc4ccc5c6c4CC=C4C=CC=C(C=C5)C46)ccc3C2=O)C(=O)N1` (configuration not stated), the values for the Ratio in series [8] and in series [9] were 0.95 and 0.39, respectively.

Consider `O=C1CCC(N2Cc3cc(NCCc4ccc5ccccc5c4)ccc3C2=O)C(=O)N1` (configuration not stated), for which the result in series [6] was Active. Further, the Ratio in series [8] was 1.51; in series [9], 0.26. Besides, in series [7], the outcome was inactive.

For the compound `COc1cc(CNc2ccc3c(c2)CN(C2CCC(=O)NC2=O)C3=O)cc2ccccc12` (configuration not stated), in series [6], the outcome was Active. Besides, in series [7], the result was inactive.

On to `COc1cc2c(OC)cccc2cc1CNc1ccc2c(c1)CN(C1CCC(=O)NC1=O)C2=O` (configuration not stated), for which, in [7], the outcome was Active.

With `O=C(/C=C/c1ccccc1)Nc1ccc2c(c1)CN(C1CCC(=O)NC1=O)C2=O` (configuration not stated), the Activity was 60% in series [1], 71% in series [2], 13% in [3] and 8% in series [4].

With `O=C1CCC(N2Cc3cc(NCc4ccc5ccccc5n4)ccc3C2=O)C(=O)N1` (configuration not stated), in series [6], the result was Active.

As for `O=C1CCC(N2Cc3cc(NCc4ccc5cc(O)ccc5c4)ccc3C2=O)C(=O)N1` (configuration not stated), the results for the Ratio in series [8] and in series [9] were 0.84 and 0.54, respectively.

With `O=C1CCC(N2Cc3cc(NC(=O)C4=Cc5ccccc5OC4)ccc3C2=O)C(=O)N1` (configuration not stated), the Activity in series [1] was found to be 66%; in [2] it was 84%; in series [3], 15%; in [4], 11%.

For the compound `COc1ccc2cc(CNc3ccc4c(c3)CN(C3CCC(=O)NC3=O)C4=O)ccc2c1` (configuration not stated), the result in [6] and in series [7] was Active. The Ratio was found to be 0.43 in [8] and 0.64 in [9].

In the case of `O=C1CCC(N2Cc3cc(NCc4cccc5ccccc45)ccc3C2=O)C(=O)N1` (configuration not stated), the figures for the Ratio in [8] and in series [9] were 0.83 and 0.66, respectively.

On to `O=C1CCC(N2Cc3cc(NC(=O)c4ccc5c(c4)CCCC5)ccc3C2=O)C(=O)N1` (configuration not stated), for which the Activity stood at 51% in series [1], 74% in series [2], 16% in [3] and 1% in series [4].
